Assay results from US20230172945A1, “APPLICATION OF COMPOUNDS IN CONTROLLING OR KILLING MITES” (SMILEBIOTEK ZHUHAI LIMITED, priority 2020, published 2023).

Tested on: D. folliculorum
Assay: In-vitro culture of Demodex mites: effect of compounds on survival time
Format: cell-based
Conditions: for Survival time: in vitro, 35 μL solution in 10% DMSO on glass slide, observed every 2 hours, mean ± spread; for Survival time / survival time of the Demodex mites in vitro: 20° C., humidity 96%; for survival time of the Demodex mites in vitro: compared with negative control 10% DMSO (80.79±25.34); for effect on survival time of mites as compared with the control group (in words): versus 10% DMSO negative control
Method: The powders of the reference compounds shown in Table 1 were separately dissolved in dimethyl sulfoxide (DMSO), and then diluted with sterilized double-distilled water to make the final concentration of DMSO 10%, which could not shorten the survival time of Demodex mites as per a controlled study. The negative control group received DMSO mixed with sterilized water at a final concentration of 10%.
35 μL of each solution was added to a glass slide, and the survival of the mites was observed under an optical microscope every 2 hours. During the experiment, the Demodex mites were observed by two skilled operators separately for the activities (bodies, limbs and the like) through the microscope to determine whether they were dead or not. If the two operators gave different results, the survival status was determined independently by a third skilled operator. The in-vitro culture was conducted in a climatic chamber at a temperature of 20° C. and a humidity of 96%. During the observation, the glass slides were transported in a wet box to ensure the high humidity.
In this experiment, statistical analysis was conducted using SPSS22.0 statistical software, normality test was conducted using Shapiro-Wilk test, and homogeneity of variance test was conducted using Bartlett's test.
Effects of compounds on survival time of D. folliculorum The in-vitro culture of the Demodex mites was conducted in an environment at a humidity of 96% and a temperature of 20° C. The survival of the Demodex mites was observed dynamically and the survival time was recorded.

SMILES | Survival time | survival time of the Demodex mites in vitro | effect on survival time of mites as compared with the control group (in words)
C=C1CC[C@]2(C)CC[C@]3(C)[C@H](CC[C@@H]4[C@@]5(C)CC[C@H](O)C(C)(C)[C@@H]5CC[C@]43C)[C@H]2[C@@H]1C [Taraxasterol] | 68.28 ± 31.30 h |  | 
C=C[C@@H]1C2=CCOC(=O)C2=CO[C@H]1O[C@@H]1O[C@H](CO)[C@@H](O)[C@H](O)[C@H]1O [Gentiopicroside] | 37.31 ± 36.06 h | 37.31±36.06 | significantly shorten the survival time of mites
C[C@@H]1[C@H]2[C@H](O[C@@H]3O[C@H](CO)[C@@H](O)[C@H](O)[C@H]3O)OC=C(C(=O)O)[C@H]2C[C@@H]1O [Loganic acid] | 61.56 ± 22.84 h |  | 
COc1ccc(-c2cc(=O)c3c(O)cc(O)cc3o2)cc1O [Diosmetin] | 35.92 ± 14.82 h | 35.92±14.82 | significantly shorten the survival time of mites
C=C[C@H]1[C@H](O[C@@H]2O[C@H](CO)[C@@H](O)[C@H](O)[C@H]2O)OC=C2C(=O)OCC[C@]21O [Swertiamarin] | 59.68 ± 10.97 h |  | 
C=C[C@H]1[C@H](O[C@@H]2O[C@H](CO)[C@@H](O)[C@H](O)[C@H]2O)OC=C2C(=O)OCC[C@H]21 [Sweroside] | 60.79 ± 25.98 h |  | 
CC1(C)CC[C@]2(C)CC=C3[C@]4(C)CC[C@H]5C(C)(C)[C@@H](O)CC[C@]5(C)[C@H]4CC[C@@]3(C)[C@@H]2C1 [Taraxerol] | 37.91 ± 20.96 h | 37.91±20.96 | significantly shorten the survival time of mites
C=C1CC[C@]2(C)CC[C@]3(C)[C@H](CC[C@@H]4[C@@]5(C)CC[C@H](OC(C)=O)C(C)(C)[C@@H]5CC[C@]43C)[C@H]2[C@@H]1C [Taraxasterol acetate] | 34.14 ± 22.96 h | 37.91±20.96 | significantly shorten the survival time of mites
C=C(C)[C@@H]1CC[C@]2(C)[C@H](CC=C3[C@@H]4[C@@H](C)[C@H](C)CC[C@]4(C)CC[C@]32C)[C@@]1(C)CCC(=O)O [Roburic acid] | 63.41 ± 12.20 h |  | 
CC1(C)CC[C@]2(C)CC=C3[C@]4(C)CC[C@H]5C(C)(C)C(=O)CC[C@]5(C)[C@H]4CC[C@@]3(C)[C@@H]2C1 [Taraxerone] | 62.06 ± 28.97 h |  | 
CC(=O)O[C@H]1CC[C@]2(C)[C@H]3CC[C@]4(C)C(=CC[C@@]5(C)CCC(C)(C)C[C@H]54)[C@]3(C)CC[C@H]2C1(C)C [Taraxeryl acetate] | 70.57 ± 27.45 h |  | 
C=C(C)[C@@H]1CC[C@]2(C)CC[C@]3(C)[C@H](CC[C@@H]4[C@@]5(C)CCC(=O)C(C)(C)[C@@H]5CC[C@]43C)[C@@H]12 [Lupenone] | 66.25 ± 31.22 h |  | 
